A value given as a limit tells only on which side of the number the result lay.

The first test deals with Mtb Lpd (Mycobacterium tuberculosis (strain ATCC 25618 / H37Rv), UniProt P9WHH9). The class given is biochemical. As to conditions: 30 min preincubation; read-out: LPD IC50 (μM) w/ 30 min preincubation.
For the compound `Cc1cc(S(=O)(=O)N(C)CC(=O)Nc2cc(=O)n(C)cn2)c2[nH]c(C#N)cc2c1` [Example 222], the IC50 came out at 0.027 µM.
In the case of `Cc1cc(S(=O)(=O)N(C)CC(=O)Nc2ccc3c(c2)CCCO3)c2[nH]c(C#N)cc2c1` [Example 221], the IC50 stood at 0.015 µM.
In the case of `C/C=C/CNC(=O)CN(C)S(=O)(=O)c1cc(C)cc2cc(C#N)[nH]c12` [Example 227], the IC50 was found to be 0.018 µM.
Take `CC#CCN(C)C(=O)CN(C)S(=O)(=O)c1cc(C)cc2cc(C#N)[nH]c12` [Example 226]: the IC50 was 0.368 µM.
For the compound `Cc1cc(S(=O)(=O)N(C)CC(=O)Nc2ccn3nccc3c2)c2[nH]c(C#N)cc2c1` [Example 220], the IC50 amounted to 0.019 µM.

The same test, now with this note: read-out: LPD IC50.
Consider `Cc1cc(S(=O)(=O)N2CC[C@H]2C(=O)Nc2ccn3nccc3c2)c2[nH]ncc2c1` [Example 91], for which the IC50 was 0.041 µM.
`Cc1cc(S(=O)(=O)N(C)CC(=O)NC2CCN(C)C(=O)C2)c2n[nH]cc2c1` (stereo not shown) [Example 68]: the IC50 turned out to be 0.149 µM.
Take `Cc1cc(S(=O)(=O)N(C)CC(=O)Nc2ccn(C)c(=O)c2)c2[nH][nH]c(=O)c2c1` [Example 133, 2-((N,5-dimethyl-3-oxo-2,3-dihydro-1H-indazole)-7-sulfonamido)-N-(1-methyl-2-oxo-1,2-dihydropyridin-4-yl)acetamide]: the IC50 came out at 0.0706 µM.
Still for that read-out and setting: the figure for `Cc1cc(S(=O)(=O)N2CC[C@H]2C(=O)NC2CCCN(C)C2)c2[nH]ncc2c1` (stereo partly shown) [Example 135-S] is 5.87 µM; for `Cc1cc(S(=O)(=O)N(C)CC(=O)N[C@H]2CCc3ccccc32)c2n[nH]cc2c1` [Example 55] it is 0.874 µM; for `Cc1cc(S(=O)(=O)N(C)CC(=O)Nc2ccc3c(c2)OCCN3C2CCOCC2)c2[nH]ncc2c1` [Example 89] it is 0.0419 µM.
On the same count and under the same terms, the figure for `COc1ccc(NC(=O)CN(C)S(=O)(=O)c2cc(C)cc3c[nH]nc23)nc1` [Example 60] is 0.0415 µM; for `Cc1cc(S(=O)(=O)N2CC[C@@H](C(=O)Nc3ccc(N4CCOCC4)c(Cl)c3)C2)c2n[nH]cc2c1` [Example 119] it is 0.0348 µM.
The same measure, in the same setting: the value for `Cc1cc(S(=O)(=O)N(C)CC(=O)Nc2nc3cnccc3s2)c2n[nH]cc2c1` [Example 115] was 0.0276 µM; that for `Cc1cc(S(=O)(=O)N(C)CC(=O)NC2(C)CCCCC2)c2n[nH]cc2c1` [Example 127] was 1.14 µM; that for `Cc1cc(S(=O)(=O)N2CC[C@H]2C(=O)N[C@@H]2CCCOC2)c2[nH]ncc2c1` [Example 142, (2S)-1-[(5-methyl-1H-indazol-7-yl)sulfonyl]-N-[(3R)-tetrahydropyran-3-yl]azetidine-2-carboxamide] was 0.47 µM.
Turning to `CCc1cc(S(=O)(=O)N(C)CC(=O)Nc2ccn(C)c(=O)c2)c2n[nH]cc2c1` [Example 117, 2-((5-ethyl-N-methyl-1H-indazole)-7-sulfonamido)-N-(1-methyl-2-oxo-1,2-dihydropyridin-4-yl)acetamide], the IC50 came to 0.05 µM.
On the same count and under the same terms, the value for `Cc1cc(S(=O)(=O)N(C)CC(=O)NC2CCCOC2)c2n[nH]cc2c1` (stereo not shown) [Example 54] was 0.0906 µM.
Consider `Cc1cc(S(=O)(=O)N(C)CC(=O)NCc2cn(C)nn2)c2[nH]ncc2c1` [Example 108], for which the IC50 is 0.111 µM.
The same measure, in the same setting: the value for `Cc1cc(S(=O)(=O)N2CC[C@H]2C(=O)NC2CCc3ccccc32)c2[nH]ncc2c1` (stereo partly shown) [Example 138] was more than 10 µM.
For the compound `Cc1cc(S(=O)(=O)N(C)CC(=O)N[C@@H]2CCc3ccccc32)c2n[nH]cc2c1` [Example 56], the IC50 came to 0.0426 µM.
Turning to `Cc1cccc(CNC(=O)CN(C)S(=O)(=O)c2cc(C)cc3c[nH]nc23)c1` [Example 110], the IC50 was 0.041 µM.
Regarding `Cc1cc(S(=O)(=O)N(C)CC(=O)Nc2nc3c(s2)CCOC3)c2n[nH]cc2c1` [Example 116], the IC50 came to 0.0771 µM.
`Cc1cc(S(=O)(=O)N(C)CC(=O)Nc2ccn3nc(C)cc3c2)c2[nH]ncc2c1` [Example 104]: the IC50 is 0.157 µM.
Still for that read-out and setting: the figure for `Cc1cc(S(=O)(=O)N2CC[C@H]2C(=O)NC2COC2)c2[nH]ncc2c1` [Example 80] is 0.285 µM; for `Cc1cc(S(=O)(=O)N(C)CC(=O)NC2C(=O)Nc3ccccc32)c2n[nH]cc2c1` (stereo not shown) [Example 77] it is 0.803 µM.
Take `CN(CC(=O)Nc1ccn(C)c(=O)c1)S(=O)(=O)c1cc(C2(O)CC2)cc2cn[nH]c12` [Example 172, 2-((5-(1-hydroxycyclopropyl)-N-methyl-1H-indazole)-7-sulfonamido)-N-(1-methyl-2-oxo-1,2-dihydropyridin-4-yl)acetamide]: the IC50 is 0.654 µM.
For `Cc1cc(S(=O)(=O)N2CC[C@H]2C(=O)Nc2cc3ccccc3cn2)c2[nH]ncc2c1` [Example 82], the IC50 amounted to 0.0489 µM.
Consider `Cc1cc(S(=O)(=O)N(C)CC(=O)Nc2ccc3ccccc3n2)c2n[nH]cc2c1` [Example 64], for which the IC50 was 0.0335 µM.
Still for that read-out and setting: the value for `Cc1cc(S(=O)(=O)N2CC[C@H]2C(=O)Nc2ccc(C#N)c(Cl)c2)c2[nH]ncc2c1` [Example 86] was 0.0414 µM.
Consider `Cc1cc(S(=O)(=O)N(C)CC(=O)N[C@@H]2CCCOC2)c2[nH]ncc2c1` [Example 113], for which the IC50 came out at 0.184 µM.
Still for that read-out and setting: the figure for `Cc1cc(S(=O)(=O)N(C)CC(=O)NC2CCOCC2)c2n[nH]cc2c1` [Example 65] is 0.118 µM.
Still for that read-out and setting: the value for `Cc1cc(S(=O)(=O)N(C)CC(=O)Nc2cc(C)n(C)c(=O)c2)c2[nH]ncc2c1` [Example 17, 2-((N,5-dimethyl-1H-indazole)-7-sulfonamido)-N-(1,6-dimethyl-2-oxo-1,2-dihydropyridin-4-yl)acetamide] was 0.052 µM.
Take `Cc1cc(S(=O)(=O)N(C)CC(=O)Nc2nc3c(s2)NCCC3)c2n[nH]cc2c1` [Example 154, 2-((N,5-dimethyl-1H-indazole)-7-sulfonamido)-N-(4,5,6,7-tetrahydrothiazolo[5,4-b]250yclopro-2-yl)acetamide]: the IC50 was 0.05 µM.
For the compound `Cc1cc(S(=O)(=O)N(C)CC(=O)NC2CCCN(C)C2)c2n[nH]cc2c1` (stereo not shown) [Example 66], the IC50 was 0.593 µM.
Turning to `Cc1cc(S(=O)(=O)N(C)CC(=O)Nc2nc3c(s2)CCN(C)C3)c2n[nH]cc2c1` [Example 137, 2-(N,5-dimethyl-1H-indazole-7-sulfonamido)-N-(5-methyl-4,5,6,7-tetrahydrothiazolo[4,5-c]pyridin-2-yl)acetamide], the IC50 is 0.025 µM.
As to `Cc1cc(S(=O)(=O)N2CC[C@H]2C(=O)NC2CCCN(C)C2)c2[nH]ncc2c1` (stereo partly shown) [Example 135-R], the IC50 was determined as 2.65 µM.
As for `Cc1cc(S(=O)(=O)N(C)CC(=O)NC2CCCCC2)c2n[nH]cc2c1` [Example 73], the IC50 worked out at 0.0858 µM.
`Cc1cc(S(=O)(=O)N2CCC2C(=O)NCc2ccccc2)c2[nH]ncc2c1` (stereo not shown) [Example 81]: the IC50 came out at 0.62 µM.
The same measure, in the same setting: the figure for `Cc1cc(S(=O)(=O)N2CC[C@H]2C(=O)NC2CCOCC2)c2[nH]ncc2c1` [Example 128] is 1.07 µM; for `Cc1cc(S(=O)(=O)N2CC[C@H]2C(=O)Nc2ccc3ccccc3n2)c2[nH]ncc2c1` [Example 84] it is 0.027 µM; for `Cc1cc(S(=O)(=O)N(C)CC(=O)NC2C(=O)N(C)c3ccccc32)c2n[nH]cc2c1` (stereo not shown) [Example 79] it is 0.779 µM.
Regarding `Cc1cc(S(=O)(=O)N2CC[C@H]2C(=O)NC2CCc3ccccc32)c2[nH]ncc2c1` (stereo partly shown) [Example 131], the IC50 turned out to be 2.52 µM.

The values are drawn from US20240132480A1, “INHIBITORS OF MYCOBACTERIUM TUBERCULOSIS LIPOAMIDE DEHYDROGENASE” (Cornell University, priority 2021, published 2024).
